Target: LXRβ (Homo sapiens (Human), UniProt P55055)
Test: In vitro assay LXRβ: PathHunter NHR CHO cells, LXRβ / Steroid Receptor Co-activator Peptide enzyme fragment complementation
Assay type: cell-based
Conditions: PathHunter NHR CHO cells, full-length human LXRβ and SRCP, chemiluminescent signal; read-out: LXRβ PPI
How it was run: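 Enzyme fragment complementation read-out: CHO cells stably expressing ProLink-tagged full-length human LXRβ plus nuclear enzyme acceptor–SRCP fusion, seeded and held overnight at 37° C. Medium with charcoal-dextran filtered serum; final vehicle 1%. Chemiluminescence measured after signal generation.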

Chain of LXRβ (P55055 whole entry, the tested form may be a part): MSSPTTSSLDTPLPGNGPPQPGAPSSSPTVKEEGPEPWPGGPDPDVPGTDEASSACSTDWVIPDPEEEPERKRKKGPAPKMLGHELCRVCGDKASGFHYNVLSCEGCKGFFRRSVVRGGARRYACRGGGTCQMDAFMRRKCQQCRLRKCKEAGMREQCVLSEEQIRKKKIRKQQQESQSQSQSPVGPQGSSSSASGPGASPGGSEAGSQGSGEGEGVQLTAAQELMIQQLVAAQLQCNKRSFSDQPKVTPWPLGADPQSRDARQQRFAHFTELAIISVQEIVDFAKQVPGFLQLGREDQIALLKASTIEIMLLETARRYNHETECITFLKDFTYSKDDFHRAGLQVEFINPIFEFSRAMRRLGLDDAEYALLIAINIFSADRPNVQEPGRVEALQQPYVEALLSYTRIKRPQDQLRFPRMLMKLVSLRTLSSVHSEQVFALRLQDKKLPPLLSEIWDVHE

Row | Compound | EC50 [µM]
1 | CC(NC(=O)C(C)(C)O)C1CCN(C(=O)CC[C@@H](C)[C@H]2CC[C@H]3[C@@H]4CC=C5C[C@@H](O)CC[C@]5(C)[C@H]4CC[C@]23C)CC1 (stereo partly drawn) [Example 227, 2-hydroxy-N-(1-(1-((R)-4-((3S,8S,9S,10R,13R,14S,17R)-3-hydroxy-10,13-dimethyl-2,3,4,7,8,9,10,11,12,13,14,15,16,17-tetradecahydro-1H-cyclopenta[a]phenanthren-17-yl)pentanoyl)piperidin-4-yl)ethyl)-2-methylpropanamide] | > 10
2 | CC(NS(C)(=O)=O)C1CCN(C(=O)CC[C@@H](C)[C@H]2CC[C@H]3[C@@H]4CC=C5C[C@@H](O)CC[C@]5(C)[C@H]4CC[C@]23C)CC1 (stereo partly drawn) [Example 229, N-(1-(1-((R)-4-((3S,8S,9S,10R,13R,14S,17R)-3-hydroxy-10,13-dimethyl-2,3,4,7,8,9,10,11,12,13,14,15,16,17-tetradecahydro-1H-cyclopenta[a]phenanthren-17-yl)pentanoyl)piperidin-4-yl)ethyl)methanesulfonamide] | > 10
3 | C[C@H](CCC(=O)N1CCC(CN(C)S(C)(=O)=O)CC1)[C@H]1CC[C@H]2[C@@H]3CC=C4C[C@@H](O)CC[C@]4(C)[C@H]3CC[C@]12C [Example 230, N-((1-((R)-4-((3S,8S,9S,10R,13R,14S,17R)-3-hydroxy-10,13-dimethyl-2,3,4,7,8,9,10,11,12,13,14,15,16,17-tetradecahydro-1H-cyclopenta[a]phenanthren-17-yl)pentanoyl)piperidin-4-yl)methyl)-N-methylmethanesulfonamide] | > 10
4 | C[C@H](CCC(=O)N1CCC(CNS(=O)(=O)C(F)(F)F)CC1)[C@H]1CC[C@H]2[C@@H]3CC=C4C[C@@H](O)CC[C@]4(C)[C@H]3CC[C@]12C [Example 231, 1,1,1-trifluoro-N-((1-((R)-4-((3S,8S,9S,10R,13R,14S,17R)-3-hydroxy-10,13-dimethyl-2,3,4,7,8,9,10,11,12,13,14,15,16,17-tetradecahydro-1H-cyclopenta[a]phenanthren-17-yl)pentanoyl)piperidin-4-yl)methyl)methanesulfonamide] | > 10
5 | C[C@H](CCC(=O)N1CCC(CNS(C)(=O)=O)CC1)[C@H]1CC[C@H]2[C@@H]3CC=C4C[C@@H](O)CC[C@]4(C)[C@H]3CC[C@]12C [Example 232, N-((1-((R)-4-((3S,8S,9S,10R,13R,14S,17R)-3-hydroxy-10,13-dimethyl-2,3,4,7,8,9,10,11,12,13,14,15,16,17-tetradecahydro-1H-cyclopenta[a]phenanthren-17-yl)pentanoyl)piperidin-4-yl)methyl)methanesulfonamide] | > 10
6 | COC(=O)N1CCN(C(=O)OC[C@@H](C)[C@H]2CC[C@H]3[C@@H]4CC=C5C[C@@H](O)CC[C@]5(C)[C@H]4CC[C@]23C)CC1 [Example 238, 1-(2S)-2-[(1R,3aS,3bS,7S,9aR,9bS,11aS)-7-hydroxy-9a,11a-dimethyl-1H,2H,3H,3aH,3bH,4H,6H,7H,8H,9H,9aH,9bH,10H,11H,11aH-cyclopenta[a]phenanthren-1-yl]propyl 4-methyl piperazine-1,4-dicarboxylate] | > 10
7 | C[C@H](CCC(=O)N1CCC(OC(F)(F)F)CC1)[C@H]1CC[C@H]2[C@@H]3CC=C4C[C@@H](O)CC[C@]4(C)[C@H]3CC[C@]12C [Example 251, (4R)-4-[(1R,3aS,3bS,7S,9aR,9bS,11aR)-7-hydroxy-9a,11a-dimethyl-1H,2H,3H,3aH,3bH,4H,6H,7H,8H,9H,9aH,9bH,10H,11H,11aH-cyclopenta[a]phenanthren-1-yl]-1-[4-(trifluoromethoxy)piperidin-1-yl]pentan-1-one] | > 10
8 | C[C@H](CCC(=O)N1CCC(OC(F)F)CC1)[C@H]1CC[C@H]2[C@@H]3CC=C4C[C@@H](O)CC[C@]4(C)[C@H]3CC[C@]12C [Example 252, (R)-1-(4-(difluoromethoxy)piperidin-1-yl)-4-((3S,8S,9S,10R,13R,14S,17R)-3-hydroxy-10,13-dimethyl-2,3,4,7,8,9,10,11,12,13,14,15,16,17-tetradecahydro-1H-cyclopenta[a]phenanthren-17-yl)pentan-1-one] | > 10
9 | CC(=O)N1CCN(C(=O)CC[C@@H](C)[C@H]2CC[C@H]3[C@@H]4CC=C5C[C@@H](O)CC[C@]5(C)[C@H]4CC[C@]23C)[C@H](C)C1 [Example 275, (4R)-4-[(1R,3aS,3bS,7S,9aR,9bS,11aR)-7-hydroxy-9a,11a-dimethyl-1H,2H,3H,3aH,3bH,4H,6H,7H,8H,9H,9aH,9bH,10H,11H,11aH-cyclopenta[a]phenanthren-1-yl]-1-[(2R)-4-acetyl-2-methylpiperazin-1-yl]pentan-1-one] | > 10
10 | CC(=O)N1CCN(C(=O)CC[C@@H](C)[C@H]2CC[C@H]3[C@@H]4CC=C5C[C@@H](O)CC[C@]5(C)[C@H]4CC[C@]23C)[C@@H](C)C1 [Example 276, (4R)-4-[(1R,3aS,3bS,7S,9aR,9bS,11aR)-7-hydroxy-9a,11a-dimethyl-1H,2H,3H,3aH,3bH,4H,6H,7H,8H,9H,9aH,9bH,10H,11H,11aH-cyclopenta[a]phenanthren-1-yl]-1-[(2S)-4-acetyl-2-methylpiperazin-1-yl]pentan-1-one] | > 10
11 | CC(=O)N1CCN(C(=O)CC[C@@H](C)[C@H]2CC[C@H]3[C@@H]4CC=C5C[C@@H](O)CC[C@]5(C)[C@H]4CC[C@]23C)C[C@@H]1C [Example 277, (R)-1-((S)-4-acetyl-3-methylpiperazin-1-yl)-4-((3S,8S,9S,10R,13R,14S,17R)-3-hydroxy-10,13-dimethyl-2,3,4,7,8,9,10,11,12,13,14,15,16,17-tetradecahydro-1H-cyclopenta[a]phenanthren-17-yl)pentan-1-one] | > 10
12 | CC(=O)N1CCN(C(=O)CC[C@@H](C)[C@H]2CC[C@H]3[C@@H]4CC=C5C[C@@H](O)CC[C@]5(C)[C@H]4CC[C@]23C)C[C@H]1C [Example 278, (R)-1-((R)-4-acetyl-3-methylpiperazin-1-yl)-4-((3S,8S,9S,10R,13R,14S,17R)-3-hydroxy-10,13-dimethyl-2,3,4,7,8,9,10,11,12,13,14,15,16,17-tetradecahydro-1H-cyclopenta[a]phenanthren-17-yl)pentan-1-one] | > 10
13 | C[C@H](CCC(=O)N1CCN(C(=O)OCCO)CC1)[C@H]1CC[C@H]2[C@@H]3CC=C4C[C@@H](O)CC[C@]4(C)[C@H]3CC[C@]12C [Example 281, 2-hydroxyethyl 4-[(4R)-4-[(1R,3aS,3bS,7S,9aR,9bS,11aR)-7-hydroxy-9a,11a-dimethyl-1H,2H,3H,3aH,3bH,4H,6H,7H,8H,9H,9aH,9bH,10H,11H,11aH-cyclopenta[a]phenanthren-1-yl]pentanoyl]piperazine-1-carboxyla] | > 10
14 | COC(=O)N1CCN(C(=O)CCC[C@H]2CC[C@H]3[C@@H]4CC=C5C[C@@H](O)CC[C@]5(C)[C@H]4CC[C@]23C)CC1 [Example 283] | > 10
15 | CNS(=O)(=O)C1CCN(C(=O)CC[C@@H](C)[C@H]2CC[C@H]3[C@@H]4CC=C5C[C@@H](O)CC[C@]5(C)[C@H]4CC[C@]23C)CC1 [Example 291, 1-[(4R)-4-[(1R,3aS,3bS,7S,9aR,9bS,11aR)-7-hydroxy-9a,11a-dimethyl-1H,2H,3H,3aH,3bH,4H,6H,7H,8H,9H,9aH,9bH,10H,11H,11aH-cyclopenta[a]phenanthren-1-yl]pentanoyl]-N-methylpiperidine-4-sulfonamide] | > 10
16 | C[C@H](CCC(=O)N(C)CCc1ccccn1)[C@H]1CC[C@H]2[C@@H]3CC=C4C[C@@H](O)CC[C@]4(C)[C@H]3CC[C@]12C [Example 293, (4R)-4-[(1R,3aS,3bS,7S,9aR,9bS,11aR)-7-hydroxy-9a,11a-dimethyl-1H,2H,3H,3aH,3bH,4H,6H,7H,8H,9H,9aH,9bH,10H,11H,11aH-cyclopenta[a]phenanthren-1-yl]-N-methyl-N-[2-(pyridin-2-yl)ethyl]pentanamide] | 0.25 to 1
17 | CO[C@H]1CCCN(C(=O)CC[C@@H](C)[C@H]2CC[C@H]3[C@@H]4CC=C5C[C@@H](O)CC[C@]5(C)[C@H]4CC[C@]23C)C1 [Example 300, (R)-4-((3S,8S,9S,10R,13R,14S,17R)-3-hydroxy-10,13-dimethyl-2,3,4,7,8,9,10,11,12,13,14,15,16,17-tetradecahydro-1H-cyclopenta[a]phenanthren-17-yl)-1-((S)-3-methoxypiperidin-1-yl)pentan-1-one] | 0.25 to 1
18 | C[C@H](CCC(=O)N1CCC(Oc2ccncc2)CC1)[C@H]1CC[C@H]2[C@@H]3CC=C4C[C@@H](O)CC[C@]4(C)[C@H]3CC[C@]12C [Example 301, (4R)-4-[(1R,3aS,3bS,7S,9aR,9bS,11aR)-7-hydroxy-9a,11a-dimethyl-1H,2H,3H,3aH,3bH,4H,6H,7H,8H,9H,9aH,9bH,10H,11H,11aH-cyclopenta[a]phenanthren-1-yl]-1-[4-(pyridin-4-yloxy)piperidin-1-yl]pentan-1-one] | > 10
19 | C[C@H](CCC(=O)N1CCN(c2ccncn2)CC1)[C@H]1CC[C@H]2[C@@H]3CC=C4C[C@@H](O)CC[C@]4(C)[C@H]3CC[C@]12C [Example 302, (R)-4-((3S,8S,9S,10R,13R,14S,17R)-3-hydroxy-10,13-dimethyl-2,3,4,7,8,9,10,11,12,13,14,15,16,17-tetradecahydro-1H-cyclopenta[a]phenanthren-17-yl)-1-(4-(pyrimidin-4-yl)piperazin-1-yl)pentan-1-one] | > 10
20 | C[C@H](CCC(=O)N1CCN(c2ncccn2)CC1)[C@H]1CC[C@H]2[C@@H]3CC=C4C[C@@H](O)CC[C@]4(C)[C@H]3CC[C@]12C [Example 305, (R)-4-((3S,8S,9S,10R,13R,14S,17R)-3-hydroxy-10,13-dimethyl-2,3,4,7,8,9,10,11,12,13,14,15,16,17-tetradecahydro-1H-cyclopenta[a]phenanthren-17-yl)-1-(4-(pyrimidin-2-yl)piperazin-1-yl)pentan-1-one] | > 10
